Assay results as given in patent publication US20220304978A1, “INHIBITING MESANGIAL CELL ACTIVATION” (Chinook Therapeutics, Inc., priority 2019, published 2022).

Test system: ET-1 stimulated HRMC
Assay: Hallmark gene set enrichment in ET-1 stimulated HRMC treated with atrasentan
Details: g-ddY and HRMC model systems; HRMC: atrasentan 1 nM and 25 nM with ET-1

CCCCN(CCCC)C(=O)CN1C[C@H](c2ccc3c(c2)OCO3)[C@@H](C(=O)O)[C@@H]1c1ccc(OC)cc1 [atrasentan, (2R,3R,4S)-4-(1,3-benzodioxol-5-yl)-1-[2-(dibutylamino)-2-oxoethyl]-2-(4-methoxyphenyl)pyrrolidine-3-carboxylic acid]
expression of hallmark gene sets (negative enrichment scores): under-expression
